# Laboratory results from patent EP2931723B1, “NEW BICYCLIC COMPOUNDS AND THEIR USE AS ANTIBACTERIAL AGENTS AND -LACTAMASE INHIBITORS” (Fedora Pharmaceuticals Inc., priority 2012, dated 2014).
# Assays:
# Test in all cases: MIC, antibacterial and synergistic activity
# Type in all cases: cell-based
# E. coli JMI 10768 [1] = settings: E. coli JMI 10768 (CTX-M15 (Weak ESBL)); Meropenem + inhibitor at 4 µg/mL
# K. pneumo JMI 4088 [2] = settings: K. pneumo JMI 4088 (KPC-3 (Cpase)); substance alone
# K.pneumo JMI 4109 [3] = settings: K.pneumo JMI 4109 (SHV-1, SHV-12); substance alone
# K. pneumo JMI 4088 [4] = settings: K. pneumo JMI 4088 (KPC-3 (Cpase))
# Description: (§1) In the Tables 10 - 12, compounds herein disclosed were tested in combination with various antibiotics against metallo β-lactamase producing bacteria. Table 3: Synergy of the inhibitor Ex. 1 (4 µg/mL) in combination with antibiotics
# E. coli JMI 10768 [5] = settings: E. coli JMI 10768 (CTX-M15 (Weak ESBL))
# Description: as §1
# E. coli JMI 2665 = test system: E. coli JMI 2665
# Description: as §1
# K. pneumo JMI 2673 [6] = settings: K. pneumo JMI 2673 (CTX-M14 (ESBL))
# Description: as §1
# K. pneumo JMI 2699 = K. pneumo JMI 2699 (VIM-1, CTX-M3)
# Description: as §1
# K.pneumo JMI 4109 [7] = settings: K.pneumo JMI 4109 (SHV-1, SHV-12)
# Description: as §1
# E. coli JMI 4080 = test system: E. coli JMI 4080
# E. coli JMI 2692 = E. coli JMI 2692 (NDM-1, TEM-1, CTX-M-15)
# Description: (§2) In the Tables 10 - 12, compounds herein disclosed were tested in combination with various antibiotics against metallo β-lactamase producing bacteria.
# K. pneumo JMI 2697 = K. pneumo JMI 2697 (IMP-4 (Cpase))
# Description: as §2
# K. pneumo JMI 2693 = K. pneumo JMI 2693 (NDM-1 (Cpase))
# Description: as §2
# K. pneumo JMI 2673 [8] = settings: K. pneumo JMI 2673 (CTX-M14 (ESBL)); substance alone
# K. pneumo JMI 4106 = K. pneumo JMI 4106 (KPC-3, TEM-1, SHV-12, SHV-141)
# P. aerug JMI 2686 = P. aerug JMI 2686 (KPC-2 (Cpase)); substance alone
# K. pneumo JMI 2674 = K. pneumo JMI 2674 (CTX-M15 (ESBL)); substance alone
# E. coli JMI 10767 = E. coli JMI 10767 (Wt)
# A. baumanii JMI 2659 = A. baumanii JMI 2659 (Ges-14 (Cpase))
# E. coli JMI 11103 = test system: E. coli JMI 11103
# E.coli JMI 4103 = E.coli JMI 4103 (KPC-2, Tem-1, CMY-Type)
# E. coli ATCC 25922 = E. coli ATCC 25922 (Wt)
# [9] = Aztreonam + inhibitor at 4 µg/mL
# [10] = Ceftazidime + inhibitor at 4 µg/mL
# [11] = Meropenem + inhibitor at 4 µg/mL
compound,measurement,setting,value
"O=C(NNC(=O)[C@H]1CC[C@H]2CN1C(=O)N2OS(=O)(=O)O)C1CC1 (stereo in doubt) [Ex. 7, (2R,5S)-N'-(cyclopropylcarbonyl)-7-oxo-6-(sulfooxy)-1,6-diazabicyclo[3.2.1]octane-2-carbohydrazide]",MIC Meropenem + inhibitor,E. coli JMI 10768 [1],≤0.0312 µg/mL
same,MIC,K. pneumo JMI 4088 [2],> 16 µg/mL
same,MIC,K.pneumo JMI 4109 [3],2 µg/mL
same,MIC Aztreonam + inhibitor,K. pneumo JMI 4088 [4]; [9],0.125 µg/mL
same,MIC Ceftazidime + inhibitor,K. pneumo JMI 4088 [4]; [10],1 µg/mL
same,MIC Meropenem + inhibitor,K. pneumo JMI 4088 [4]; [11],1 µg/mL
same,MIC Aztreonam + inhibitor,E. coli JMI 10768 [5]; [9],≤0.062 µg/mL
same,MIC Ceftazidime + inhibitor,E. coli JMI 10768 [5]; [10],2 µg/mL
same,MIC,"E. coli JMI 10768 [5]; Escherichia coli, JMI10768, substance alone",16 µg/mL
same,MIC Aztreonam + inhibitor,"E. coli JMI 2665; E. coli JMI 2665 (CMY-2 (Plasmid Cpase)), Aztreonam + inhibitor at 4 µg/mL",≤0.062 µg/mL
same,MIC Ceftazidime + inhibitor,"E. coli JMI 2665; E. coli JMI 2665 (CMY-2 (Plasmid Cpase)), Ceftazidime + inhibitor at 4 µg/mL",≤0.25 µg/mL
same,MIC,"E. coli JMI 2665; Escherichia coli, JMI2665",2 µg/mL
same,MIC Aztreonam + inhibitor,K. pneumo JMI 2673 [6]; [9],≤0.062 µg/mL
same,MIC Ceftazidime + inhibitor,K. pneumo JMI 2673 [6]; [10],≤0.25 µg/mL
same,MIC Meropenem + inhibitor,K. pneumo JMI 2673 [6]; [11],≤0.0312 µg/mL
same,MIC Aztreonam + inhibitor,K. pneumo JMI 2699; [9],≤0.062 µg/mL
same,MIC Ceftazidime + inhibitor,K. pneumo JMI 2699; [10],0.5 µg/mL
same,MIC Meropenem + inhibitor,K. pneumo JMI 2699; [11],0.5 µg/mL
same,MIC,"K. pneumo JMI 2699; substance alone, read-out: MIC",16 µg/mL
same,MIC Aztreonam + inhibitor,K.pneumo JMI 4109 [7]; [9],0.125 µg/mL
same,MIC Ceftazidime + inhibitor,K.pneumo JMI 4109 [7]; [10],≤0.25 µg/mL
same,MIC Meropenem + inhibitor,K.pneumo JMI 4109 [7]; [11],≤0.0312 µg/mL
same,MIC Aztreonam + inhibitor,"E. coli JMI 4080; E. coli JMI 4080 (Tem-10), Aztreonam + inhibitor at 4 µg/mL",≤0.062 µg/mL
same,MIC Ceftazidime + inhibitor,"E. coli JMI 4080; E. coli JMI 4080 (Tem-10), Ceftazidime + inhibitor at 4 µg/mL",≤0.25 µg/mL
same,MIC Meropenem + inhibitor,"E. coli JMI 4080; E. coli JMI 4080 (Tem-10), Meropenem + inhibitor at 4 µg/mL",≤0.0312 µg/mL
same,MIC,"E. coli JMI 4080; Escherichia coli, JMI4080, E. coli JMI 4080 (Tem-10), substance alone",4 µg/mL
same,MIC Aztreonam + inhibitor,E. coli JMI 2692; [9],≤0.062 µg/mL
same,MIC Ceftazidime + inhibitor,E. coli JMI 2692; [10],≤0.25 µg/mL
same,MIC Meropenem + inhibitor,E. coli JMI 2692; [11],0.5 µg/mL
same,MIC,"E. coli JMI 2692; Escherichia coli, JMI2692, substance alone, read-out: MIC",8 µg/mL
same,MIC Aztreonam + inhibitor,K. pneumo JMI 2697; [9],≤0.062 µg/mL
same,MIC Ceftazidime + inhibitor,K. pneumo JMI 2697; [10],16 µg/mL
same,MIC Meropenem + inhibitor,K. pneumo JMI 2697; [11],2 µg/mL
same,MIC,K. pneumo JMI 2697; substance alone,> 16 µg/mL
same,MIC Aztreonam + inhibitor,K. pneumo JMI 2693; [9],1 µg/mL
same,MIC Ceftazidime + inhibitor,K. pneumo JMI 2693; [10],2 µg/mL
same,MIC Meropenem + inhibitor,K. pneumo JMI 2693; [11],0.25 µg/mL
same,MIC,K. pneumo JMI 2693; substance alone,> 16 µg/mL
same,MIC,K. pneumo JMI 2673 [8],> 16 µg/mL
same,MIC Aztreonam + inhibitor,K. pneumo JMI 4106; [9],0.125 µg/mL
same,MIC Ceftazidime + inhibitor,K. pneumo JMI 4106; [10],≤0.25 µg/mL
same,MIC Meropenem + inhibitor,K. pneumo JMI 4106; [11],≤0.0312 µg/mL
same,MIC,"K. pneumo JMI 4106; substance alone, read-out: MIC",16 µg/mL
same,MIC,P. aerug JMI 2686,> 16 µg/mL
same,MIC,K. pneumo JMI 2674,> 16 µg/mL
same,MIC Meropenem + inhibitor,E. coli JMI 10767; [11],≤0.0312 µg/mL
same,MIC,"E. coli JMI 10767; Escherichia coli, JMI10767, substance alone",8 µg/mL
same,MIC Aztreonam + inhibitor,A. baumanii JMI 2659; [9],>4 µg/mL
same,MIC Ceftazidime + inhibitor,A. baumanii JMI 2659; [10],>16 µg/mL
same,MIC Meropenem + inhibitor,A. baumanii JMI 2659; [11],>2 µg/mL
same,MIC,"A. baumanii JMI 2659; Acinetobacter baumannii, JMI2659, substance alone, read-out: MIC",> 16 µg/mL
same,MIC Aztreonam + inhibitor,"E. coli JMI 11103; E. coli JMI 11103 (CTX-M15 (Intermediate ESBL)), Aztreonam + inhibitor at 4 µg/mL",≤0.062 µg/mL
same,MIC Ceftazidime + inhibitor,"E. coli JMI 11103; E. coli JMI 11103 (CTX-M15 (Intermediate ESBL)), Ceftazidime + inhibitor at 4 µg/mL",≤0.25 µg/mL
same,MIC Meropenem + inhibitor,"E. coli JMI 11103; E. coli JMI 11103 (CTX-M15 (Intermediate ESBL)), Meropenem + inhibitor at 4 µg/mL",≤0.0312 µg/mL
same,MIC,"E. coli JMI 11103; Escherichia coli, JMI11103, E. coli JMI 11103 (CTX-M15 (Intermediate ESBL)), substance alone",16 µg/mL
same,MIC Aztreonam + inhibitor,E.coli JMI 4103; [9],≤0.062 µg/mL
same,MIC Ceftazidime + inhibitor,E.coli JMI 4103; [10],≤0.25 µg/mL
same,MIC Meropenem + inhibitor,E.coli JMI 4103; [11],≤0.0312 µg/mL
same,MIC,"E.coli JMI 4103; Escherichia coli, JMI4103, substance alone",2 µg/mL
same,MIC Aztreonam + inhibitor,E. coli ATCC 25922; [9],≤0.0625 µg/mL
same,MIC Ceftazidime + inhibitor,E. coli ATCC 25922; [10],≤0.25 µg/mL
same,MIC Meropenem + inhibitor,E. coli ATCC 25922; [11],≤0.0312 µg/mL
same,MIC,"E. coli ATCC 25922; Escherichia coli, ATCC25922, substance alone",> 16 µg/mL
